Assays:
[1] = molecular target: T1, IDO1 (Homo sapiens, UniProt P14902); assay: IDO1 cellular assay in HeLa cells stimulated with IFNγ; format: cell-based; details: IFNγ 100 ng/mL, 300 uM L-tryptophan, about 48 hours, fluorescence readout, read-out: HeLa Cell Potency, IC50
Protocol: Biological Assays IDO1 Cellular Assay in HeLa Cells Stimulated with IFNγ
HeLa cells were cultured in complete HeLa culture medium (90% EMEM, 10% heat-inactivated fetal bovine serum) and expanded to about 1×10^9 cells. The cells were then collected and frozen down at 1×10^7 cells/vial in 1 mL frozen medium (90% complete HeLa culture medium, 10% DMSO).
Compounds to be tested were serially diluted in ten 3-fold steps in DMSO starting from 10 mM DMSO stocks in Echo low volume plate(s). Compound dilutions or DMSO alone were then dispensed from the dilution plate(s) into Greiner black 384-well assay plate(s) (catalog #781086, 50 nL/well) using an Echo 550 acoustic liquid handler (Labcyte).
Frozen HeLa cells were thawed and transferred into HeLa assay medium (99% complete HeLa culture medium, 1% Pen/Strep) with 20 mL medium/vial of cells. The cells were spun down at 250 g in a table top centrifuge for 5 min and suspended in same volume of HeLa assay medium. The cells were then counted and adjusted to a density of 2×10^5 cells/mL in HeLa assay medium. Sterile L-tryptophan were added to the cells with final concentration of 300 uM L-tryptophan. A small aliquot (2 mL/plate) of HeLa cells were set aside and were not treated with IFNγ, to serve as the Max-E control.
HeLa cells with and without IFNγ were dispensed to the respective wells of 384-well assay plates containing the compounds. The plates were incubated for about 48 hours at a 37° C., 5% CO2 incubator. Afterwards, 12 μL of 0.5 M methyl isonipecotate in dimethyl sulfoxide were added into each well and the plates were sealed and incubated at 37° C. without CO2 overnight. The plates were centrifuged for 1 min at 200×g. The resulting fluorescence was measured in a Spectramax plate reader (Molecular Devices) with a 400 nm excitation filter and a 510 nm emission filter.
The fluorescence intensity of each well was corrected for the background observed in wells with non-IFNγ-treated cells and was expressed as a fraction of the intensity observed in wells of IFNγ-treated cells and DMSO only. Potencies were calculated by linear least squares fit to the four parameter logistic IC50 equation.

[2] = molecular target: T1, IDO1; assay: IDO1 human whole blood assay; format: cell-based; parameters: Human whole blood was drawn in sodium heparin coated tubes from healthy internal donors; from tissue; host or cells: human whole blood from healthy donors, stimulated with LPS/IFNγ; details: stimulant 100 ng/mL final, 18 h, kynurenine by LC/MS/MS, read-out: Human Whole Blood Potency, IC50
Protocol: IDO1 Human Whole Blood Assay
Compounds to be tested were serially diluted in ten 3-fold steps in DMSO starting from 10 mM. 3 μL of compound dilutions or DMSO alone were then dispensed from the dilution plate into a polypropylene 96-well assay plate containing 97 μL of RPMI medium using an Echo 555 acoustic liquid handler (Labcyte). Lipopolysaccharide (LPS) induced IFNγ was prepared in RPMI medium to a 10× of final conc. (1000 ng/mL), final concentration is 100 ng/mL.
Human whole blood was drawn in sodium heparin coated tubes from healthy internal donors. 240 μL of blood was transferred to each of the wells of a v-bottom 96 well plate. 30 μL of compound was transferred from intermediate dilution plate, and incubated for 15 min. 30 μL from stimulants was then transferred to blood and mixed thoroughly. Plate was covered with breathable membrane and incubated at 37° C. for overnight (18 h).
On day 2, isotope labeled standard solutions of kunurenine and tryptophan was made in water at 10× concentration and 30 μL was added to the blood at 3 μM final concentration. The assay plates were centrifuged at 300×G for 10 min with no brake to separate plasma from red blood cells. 60 μL of plasma samples was removed without disturbing red blood cells. Plasma was diluted with RPMI in 1:1 ratio and proteins were precipitated out with two volumes of Acetonitrile. The plates were centrifuged at 4000×G for 60 min. 20 μL of supernatant was carefully transferred to a 384 well plate containing 40 μL of 0.1% formic acid in water and analyzed by LC/MS/MS.
LC/MS/MS analyses were performed using Thermo Fisher's LX4-TSQ Quantum Ultra system. This system consists of four Agilent binary high-performance liquid chromatography (HPLC) pumps and a TSQ Quantum Ultra triple quadrupole MS/MS instrument. For each sample, 5 μL were injected onto an Atlantis T3 column (2.1 mm×150 mm, 3 μm particle size) from Waters. The mobile phase gradient pumped at 0.8 mL/min was used to elute the analytes from the column at 25° C. […] Compounds were titrated and IC50's were calculated by 4 parameter sigmoidal curve fitting formula.

T1 sequence (P14902 whole entry): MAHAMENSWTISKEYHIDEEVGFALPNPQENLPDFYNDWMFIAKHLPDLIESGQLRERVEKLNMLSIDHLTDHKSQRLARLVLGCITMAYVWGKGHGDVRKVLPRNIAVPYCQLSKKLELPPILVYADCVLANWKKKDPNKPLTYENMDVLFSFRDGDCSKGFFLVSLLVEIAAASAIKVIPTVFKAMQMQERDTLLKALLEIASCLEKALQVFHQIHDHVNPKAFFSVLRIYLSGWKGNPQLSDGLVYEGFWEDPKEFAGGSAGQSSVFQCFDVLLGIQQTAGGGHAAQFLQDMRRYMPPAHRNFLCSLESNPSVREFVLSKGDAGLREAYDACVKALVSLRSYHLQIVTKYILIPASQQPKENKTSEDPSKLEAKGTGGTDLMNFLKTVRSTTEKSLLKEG

IC50 [1] | IC50 [2] | SMILES
2.98 nM | 864 nM | O=C(NC1(c2ccc3c(n2)CCC[C@H]3Oc2cccc(Cl)c2)CC1)c1ccc(F)cc1 (single isomer, unassigned) [Example 2]
6.99 nM | > 1000 nM | O=C(NC1(c2ccc3c(n2)CCC[C@@H]3Oc2cccc(Cl)c2)CC1)c1ccc(F)cc1 (single isomer, unassigned) [Example 3]
2.68 nM | 601 nM | O=C(NC1(c2ccc3c(n2)CCCC3Oc2cccc(Cl)c2)CC1)c1ccc(F)cc1 (stereo not drawn) [Example 1, N-(1-(5-(3-chlorophenoxy)-5,6,7,8-tetrahydroquinolin-2-yl)cyclopropyl)-4-fluorobenzamide]
